{
  "source": "patent US20160213007A1",
  "about": "“Methods and Compositions to Elicit Resistance to Fungal Disease in Plants and Plant Parts” (ECOFLORA AGRO S.A.S., priority 2013, published 2016)",
  "test_system": "Botrytis cinerea",
  "test": "Growth inhibition of Botrytis cinerea by acetophenones",
  "data": [
    {"smiles": "O=C(CO)c1ccccc1", "note": "[2-hydroxy acetophenone]", "values": [
      {"measurement": "inhibition of the growth of the fungus Botrytis cinerea", "result": "can inhibit the growth"}
    ]}
  ]
}
